Results published in ChEMBL document CHEMBL1201862, “PubChem BioAssay data set” (2004).
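Five compound concentrations were applied to cells in 96-well plates for 48 hours; endpoints were derived by simple linear interpolation of the resulting dose-response curve. GI50: concentration for 50% inhibition of growth.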 Active and inactive are the calls of the source. Rule as the data show it: active = GI50 up to about 1.1 µM and inactive = higher.

Assays:
Assay in all cases: NCI-60 cell line screen, 48 h
[1] = test system: Malme-3M
[2] = test system: HCT-116
[3] = test system: SK-OV-3
[4] = test system: SNB-19
[5] = test system: SW-620
[6] = test system: U-251
[7] = test system: RXF 393
[8] = test system: DU-145
[9] = test system: SK-MEL-5
[10] = test system: NCI/ADR-RES
[11] = test system: HL-60
[12] = test system: UACC-62
[13] = test system: NCI-H460
[14] = test system: CAKI-1
[15] = test system: K562
[16] = test system: MDA-MB-231
[17] = test system: MOLT-4
[18] = test system: EKVX
[19] = test system: M14
[20] = test system: Hs-578T
[21] = test system: HCC 2998
[22] = test system: NCI-H23
[23] = test system: LOX IMVI
[24] = test system: SR
[25] = test system: SN12C
[26] = test system: SK-MEL-28
[27] = test system: BT-549
[28] = test system: A549
[29] = test system: SF-268
[30] = test system: HCT-15
[31] = test system: IGROV-1
[32] = test system: HOP-62
[33] = test system: UACC-257
[34] = test system: SF-295
[35] = test system: MDA-N
[36] = test system: NCI-H226
[37] = test system: COLO 205
[38] = test system: KM12
[39] = test system: RPMI-8226
[40] = test system: HOP-92
[41] = test system: NCI-H522
[42] = test system: SNB-75
[43] = test system: SF-539
[44] = test system: HT-29
[45] = test system: OVCAR-8
[46] = test system: OVCAR-5
[47] = test system: ACHN
[48] = test system: A498
[49] = test system: SK-MEL-2
[50] = test system: T47D
[51] = test system: MDA-MB-435
[52] = test system: OVCAR-4
[53] = test system: 786-0
[54] = test system: MCF7
[55] = test system: TK-10
[56] = test system: OVCAR-3
[57] = test system: UO-31
[58] = test system: PC-3
[59] = test system: CCRF-CEM

Measured: GI50

Nc1nc(SCc2ccccc2)c2ncn(Cc3ccccc3)c2n1
> 81.3 µM: [30]
inactive: [1] > 57.9 µM | [2] > 100 µM | [3] > 100 µM | [4] > 100 µM | [5] > 100 µM | [6] > 100 µM | [7] 62.2 µM | [8] > 100 µM | [9] > 63 µM | [10] > 100 µM | [11] 4.56 µM | [12] > 83 µM | [13] > 79.4 µM | [14] 30.1 µM | [15] > 87.3 µM | [16] > 100 µM | [17] > 100 µM | [18] > 100 µM | [19] > 100 µM | [20] > 100 µM | [21] > 100 µM | [22] > 67.8 µM | [23] > 100 µM | [24] > 56.9 µM | [25] > 100 µM | [26] > 100 µM | [27] > 100 µM | [28] > 96.2 µM | [29] > 84.7 µM | [31] > 100 µM | [32] > 100 µM | [33] > 71 µM | [34] > 100 µM | [35] > 100 µM | [36] > 100 µM | [37] > 100 µM | [38] > 86.9 µM | [39] > 75.9 µM | [40] > 85.9 µM | [41] > 60.4 µM | [42] 35.8 µM | [43] > 100 µM | [44] > 81.8 µM | [45] > 100 µM | [46] > 100 µM | [47] > 100 µM | [48] > 44.9 µM | [49] > 58.1 µM | [50] > 47.6 µM | [51] > 71.8 µM | [52] > 100 µM | [53] > 100 µM | [54] > 90.8 µM | [55] > 100 µM | [56] > 67.5 µM | [57] > 100 µM | [58] > 100 µM

COc1ccc(C(OCC2OC(n3cc(C)c(=O)[nH]c3=O)CC2n2cc(Cn3cc(Br)c(=O)[nH]c3=O)nn2)(c2ccccc2)c2ccccc2)cc1 (stereo not drawn)
> 100 µM: [30]
inactive: [1] > 100 µM | [2] > 100 µM | [3] > 100 µM | [4] > 100 µM | [5] > 100 µM | [6] 66.5 µM | [7] > 100 µM | [8] > 100 µM | [9] > 100 µM | [10] > 100 µM | [11] 2.07 µM | [12] > 100 µM | [14] > 100 µM | [16] > 100 µM | [17] 4.36 µM | [18] > 100 µM | [19] > 100 µM | [20] > 100 µM | [21] > 100 µM | [22] > 100 µM | [23] > 100 µM | [24] > 100 µM | [25] > 100 µM | [26] > 100 µM | [27] > 100 µM | [28] > 100 µM | [29] > 100 µM | [31] 38.5 µM | [32] > 100 µM | [33] > 100 µM | [34] > 100 µM | [35] 21 µM | [36] > 100 µM | [37] > 100 µM | [38] 50.9 µM | [39] 5.05 µM | [40] > 100 µM | [41] > 100 µM | [42] > 100 µM | [43] > 100 µM | [44] > 100 µM | [45] > 100 µM | [46] > 100 µM | [47] > 100 µM | [48] > 100 µM | [49] > 100 µM | [50] > 100 µM | [51] 6.55 µM | [52] > 100 µM | [53] > 100 µM | [54] 16 µM | [55] > 100 µM | [56] > 100 µM | [57] > 100 µM | [59] 2.53 µM | [58] 32.5 µM

C=C1CCC(CC[C@@H]2CC[C@]3(OC2)O[C@@]2(O)CC[C@]3(C)OC2(C)C)C(C)(C)[C@H]1C/C=C1/C(=O)OC[C@@H]1O (stereo partly drawn)
1.22 µM: [30]
active: [2] 0.71 µM | [9] 0.0986 µM | [10] 0.906 µM | [11] 0.685 µM | [15] 0.141 µM | [22] 0.445 µM | [23] 0.24 µM | [33] 0.363 µM | [34] 0.348 µM | [49] 0.524 µM | [50] 0.413 µM | [52] 0.263 µM | [54] 1.11 µM | [59] 1.06 µM
inactive: [1] 2.39 µM | [3] 4.85 µM | [4] 2.89 µM | [5] 3.33 µM | [6] 2 µM | [7] 2.19 µM | [8] 4.83 µM | [12] 1.34 µM | [13] 3.04 µM | [14] 5 µM | [16] 1.69 µM | [17] 1.59 µM | [18] 2.96 µM | [19] 2.48 µM | [20] 4.2 µM | [21] 4.16 µM | [24] 1.54 µM | [25] 2.36 µM | [26] 1.59 µM | [27] 1.9 µM | [28] 3.55 µM | [29] 3.01 µM | [31] 2.91 µM | [32] 6.1 µM | [35] 1.49 µM | [36] 2.29 µM | [37] 5.43 µM | [38] 2.34 µM | [39] 1.62 µM | [40] 2.02 µM | [41] 1.29 µM | [42] 7.29 µM | [43] 3.17 µM | [44] 1.63 µM | [45] 1.22 µM | [46] 2.5 µM | [47] 2.65 µM | [48] 5.93 µM | [51] 1.86 µM | [53] 2.96 µM | [55] 6.12 µM | [56] 2.57 µM | [57] 4.91 µM | [58] 2.17 µM

CC1=CC(=O)[C@@H](O)[C@]2(C)[C@H]3[C@@]4(O)OC[C@@]35[C@@H](C[C@@H]12)OC(=O)C(OC(=O)CC1=CCCC1)[C@H]5[C@@H](C)[C@H]4O (stereo partly drawn)
0.0593 µM: [30]
active: [1] 0.0164 µM | [2] 0.0255 µM | [3] 0.551 µM | [4] 0.0344 µM | [5] 0.0622 µM | [6] 0.0158 µM | [7] 0.04 µM | [8] 0.0665 µM | [9] 0.0167 µM | [10] 0.136 µM | [11] < 0.0168 µM | [12] 0.0383 µM | [13] 0.023 µM | [14] 0.167 µM | [15] 0.0246 µM | [16] 0.0559 µM | [17] < 0.0145 µM | [18] 0.224 µM | [19] 0.0294 µM | [20] 0.0272 µM | [21] 0.04 µM | [22] 0.0187 µM | [23] < 0.0177 µM | [24] 0.0168 µM | [25] 0.0481 µM | [26] 0.0204 µM | [27] 0.0409 µM | [28] 0.28 µM | [29] 0.0345 µM | [31] 0.0188 µM | [32] 0.024 µM | [33] 0.022 µM | [34] 0.0649 µM | [35] 0.0269 µM | [36] 0.0167 µM | [37] 0.24 µM | [38] 0.0256 µM | [39] < 0.0124 µM | [40] 0.0548 µM | [41] 0.0178 µM | [42] 0.0423 µM | [43] 0.0169 µM | [44] 0.0238 µM | [45] 0.0279 µM | [46] 0.105 µM | [47] 0.0344 µM | [48] 0.429 µM | [49] 0.0547 µM | [50] 0.0771 µM | [51] 0.0404 µM | [52] 0.0527 µM | [53] 0.0465 µM | [54] < 0.0142 µM | [55] 0.0408 µM | [56] 0.0239 µM | [57] 0.0668 µM | [59] 0.0197 µM | [58] 0.0311 µM
